Measured values reported in patent publication US20050107386A1, “Methods of treating diseases and disorders by targeting multiple kinases” (priority 2003, published 2005).

Columns and labels:
Type in all cases: biochemical
Conditions in all cases: 3 μM; percent of control kinase activity
[1] = target: CK2(h) (Homo sapiens, UniProt P68400); assay: CK2(h) kinase assay
Method: (§1) Six compounds (presumptive single agents) were tested against a panel of 50 kinases. The results are presented in Table 2; numbers for each kinase indicate the percent of control kinase activity in the presence of a 3μM concentration of the indicated agent.
(§2) Agents that target two or more different kinases are useful in the methods of the invention as described elsewhere herein. Such compounds may be identified, and their effect on certain kinases may be identified, using the assays briefly described below in Examples 4-83. Each of these assays was carried out as described in Davies et al., Biochem. J., 351:95-105 (2000). All assays were carried out at 10 μM ATP unless otherwise noted.
(§3) In a final reaction volume of 25 μl, CK2(h) (5-10 mU) is incubated with 20 mM Hepes pH 7.6, 0.15 M NaCl, 0.1 mM EDTA, 5 mM DTT, 0.1% Triton X-100, 165 μM […] (SEQ ID NO:6), 10 mM MgAcetate and [γ-^33P-ATP] (specific activity approx. 500 cpm/pmol, concentration as required). The reaction is initiated by the addition of Mg^2+ [γ-^33P-ATP]. After incubation for 40 minutes at room temperature, the reaction is stopped by the addition of 5 μl of a 3% phosphoric acid solution. 10 μl of the reaction is then spotted onto a P30 filtermat and washed three times for 5 minutes in 75 mM phosphoric acid and once in methanol prior to drying and scintillation counting.

[2] = target: T1, ZAP-70(h) (Homo sapiens, UniProt P43403); assay: ZAP-70(h) kinase assay
T1 sequence (P43403 1-619): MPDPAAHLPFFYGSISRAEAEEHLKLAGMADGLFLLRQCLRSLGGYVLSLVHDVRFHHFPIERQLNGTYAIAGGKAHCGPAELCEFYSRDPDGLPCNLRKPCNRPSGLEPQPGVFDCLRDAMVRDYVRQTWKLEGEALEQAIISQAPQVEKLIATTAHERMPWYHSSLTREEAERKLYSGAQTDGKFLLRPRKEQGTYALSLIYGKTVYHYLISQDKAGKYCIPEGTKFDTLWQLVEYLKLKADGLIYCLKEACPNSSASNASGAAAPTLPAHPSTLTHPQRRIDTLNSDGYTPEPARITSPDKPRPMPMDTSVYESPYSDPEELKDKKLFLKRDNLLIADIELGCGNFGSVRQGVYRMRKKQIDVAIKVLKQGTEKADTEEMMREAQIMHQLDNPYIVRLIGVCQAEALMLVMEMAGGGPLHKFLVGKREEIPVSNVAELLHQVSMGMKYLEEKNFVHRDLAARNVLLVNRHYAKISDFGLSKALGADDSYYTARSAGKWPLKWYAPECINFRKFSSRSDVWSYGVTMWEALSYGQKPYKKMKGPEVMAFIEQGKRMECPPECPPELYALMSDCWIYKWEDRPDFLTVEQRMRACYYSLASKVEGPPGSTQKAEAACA
Method: as §1, §2
(§4) In a final reaction volume of 25 μl, ZAP-70 (h) (5-10 mU) is incubated with 50 mM Tris pH 7.5, 0.1 mM EGTA, 0.1 mM NaVanadate, 0.1% β-mercaptoethanol, 0.1 mg/ml poly(Glu, Tyr) 4:1, 10 mM MnCl2, 10 mM MgAcetate and [γ-^33P-ATP] (Specific activity approx. 500 cpm/pmol, concentration as required). The reaction is initiated by the addition of Mg^2+ [γ-^33P-ATP]. After incubation for 40 minutes at room temperature, the reaction is stopped by the addition of 5 μl of a 3% phosphoric acid solution. 10 μl of the reaction is then spotted onto a Filtermat A and washed three times for 5 minutes in 75 mM phosphoric acid and once in methanol prior to drying and scintillation counting.

[3] = target: FGFR3(h) (Homo sapiens, UniProt P22607); assay: FGFR3(h) kinase assay
FGFR3(h), sequence (P22607 23-806): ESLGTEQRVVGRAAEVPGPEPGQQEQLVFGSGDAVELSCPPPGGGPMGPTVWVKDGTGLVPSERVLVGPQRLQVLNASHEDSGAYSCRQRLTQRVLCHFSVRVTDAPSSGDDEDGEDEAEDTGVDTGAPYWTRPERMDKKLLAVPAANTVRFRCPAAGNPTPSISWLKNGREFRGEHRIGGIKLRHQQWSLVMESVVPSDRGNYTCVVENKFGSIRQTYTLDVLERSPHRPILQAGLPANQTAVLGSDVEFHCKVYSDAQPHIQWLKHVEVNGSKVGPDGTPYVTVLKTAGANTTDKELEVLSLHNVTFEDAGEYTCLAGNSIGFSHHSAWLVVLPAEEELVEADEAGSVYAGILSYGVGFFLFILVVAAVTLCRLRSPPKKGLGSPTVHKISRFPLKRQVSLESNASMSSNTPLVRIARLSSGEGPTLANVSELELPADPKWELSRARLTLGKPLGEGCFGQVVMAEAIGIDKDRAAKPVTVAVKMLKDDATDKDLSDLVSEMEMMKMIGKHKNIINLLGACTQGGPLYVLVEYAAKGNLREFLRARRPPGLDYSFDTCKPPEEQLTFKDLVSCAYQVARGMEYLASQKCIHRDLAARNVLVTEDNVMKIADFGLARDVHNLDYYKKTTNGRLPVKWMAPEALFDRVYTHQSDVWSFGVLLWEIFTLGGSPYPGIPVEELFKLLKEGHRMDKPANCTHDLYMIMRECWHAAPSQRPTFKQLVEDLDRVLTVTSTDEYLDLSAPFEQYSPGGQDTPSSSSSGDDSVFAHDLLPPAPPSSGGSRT
Method: as §1, §2
as §4, with “FGFR3” for “ZAP-70”, “(specific” for “(Specific”

[4] = target: Fyn(h) (Homo sapiens, UniProt P06241); assay: Fyn(h) kinase assay
Fyn(h), sequence (P06241 whole entry): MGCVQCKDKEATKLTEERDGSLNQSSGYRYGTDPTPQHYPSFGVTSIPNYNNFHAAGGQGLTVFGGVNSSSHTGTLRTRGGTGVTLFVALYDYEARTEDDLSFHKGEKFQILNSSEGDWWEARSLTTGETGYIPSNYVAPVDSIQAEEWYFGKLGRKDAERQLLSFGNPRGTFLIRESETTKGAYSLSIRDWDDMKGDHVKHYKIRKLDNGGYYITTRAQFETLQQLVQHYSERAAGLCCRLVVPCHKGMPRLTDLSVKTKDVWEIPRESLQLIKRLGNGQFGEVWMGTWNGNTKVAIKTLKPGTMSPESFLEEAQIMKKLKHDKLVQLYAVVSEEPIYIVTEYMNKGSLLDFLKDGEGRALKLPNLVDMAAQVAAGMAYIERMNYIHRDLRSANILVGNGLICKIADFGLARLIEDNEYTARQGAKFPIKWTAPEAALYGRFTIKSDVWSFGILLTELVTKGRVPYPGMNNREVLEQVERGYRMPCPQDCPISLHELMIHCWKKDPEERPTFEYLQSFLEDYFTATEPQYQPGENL
Method: as §1, §2
as §4, with “Fyn” for “ZAP-70”, “250 μM […] (Cdc2 peptide; SEQ ID NO:7),” for “0.1% β-mercaptoethanol, 0.1 mg/ml poly(Glu, Tyr) 4:1, 10 mM MnCl2,”, “(specific” for “(Specific”, “P30 filtermat” for “Filtermat A”

[5] = target: ROCK-II(h) (Homo sapiens, UniProt O75116); assay: ROCK-II(h) kinase assay
ROCK-II(h), sequence (O75116 whole entry): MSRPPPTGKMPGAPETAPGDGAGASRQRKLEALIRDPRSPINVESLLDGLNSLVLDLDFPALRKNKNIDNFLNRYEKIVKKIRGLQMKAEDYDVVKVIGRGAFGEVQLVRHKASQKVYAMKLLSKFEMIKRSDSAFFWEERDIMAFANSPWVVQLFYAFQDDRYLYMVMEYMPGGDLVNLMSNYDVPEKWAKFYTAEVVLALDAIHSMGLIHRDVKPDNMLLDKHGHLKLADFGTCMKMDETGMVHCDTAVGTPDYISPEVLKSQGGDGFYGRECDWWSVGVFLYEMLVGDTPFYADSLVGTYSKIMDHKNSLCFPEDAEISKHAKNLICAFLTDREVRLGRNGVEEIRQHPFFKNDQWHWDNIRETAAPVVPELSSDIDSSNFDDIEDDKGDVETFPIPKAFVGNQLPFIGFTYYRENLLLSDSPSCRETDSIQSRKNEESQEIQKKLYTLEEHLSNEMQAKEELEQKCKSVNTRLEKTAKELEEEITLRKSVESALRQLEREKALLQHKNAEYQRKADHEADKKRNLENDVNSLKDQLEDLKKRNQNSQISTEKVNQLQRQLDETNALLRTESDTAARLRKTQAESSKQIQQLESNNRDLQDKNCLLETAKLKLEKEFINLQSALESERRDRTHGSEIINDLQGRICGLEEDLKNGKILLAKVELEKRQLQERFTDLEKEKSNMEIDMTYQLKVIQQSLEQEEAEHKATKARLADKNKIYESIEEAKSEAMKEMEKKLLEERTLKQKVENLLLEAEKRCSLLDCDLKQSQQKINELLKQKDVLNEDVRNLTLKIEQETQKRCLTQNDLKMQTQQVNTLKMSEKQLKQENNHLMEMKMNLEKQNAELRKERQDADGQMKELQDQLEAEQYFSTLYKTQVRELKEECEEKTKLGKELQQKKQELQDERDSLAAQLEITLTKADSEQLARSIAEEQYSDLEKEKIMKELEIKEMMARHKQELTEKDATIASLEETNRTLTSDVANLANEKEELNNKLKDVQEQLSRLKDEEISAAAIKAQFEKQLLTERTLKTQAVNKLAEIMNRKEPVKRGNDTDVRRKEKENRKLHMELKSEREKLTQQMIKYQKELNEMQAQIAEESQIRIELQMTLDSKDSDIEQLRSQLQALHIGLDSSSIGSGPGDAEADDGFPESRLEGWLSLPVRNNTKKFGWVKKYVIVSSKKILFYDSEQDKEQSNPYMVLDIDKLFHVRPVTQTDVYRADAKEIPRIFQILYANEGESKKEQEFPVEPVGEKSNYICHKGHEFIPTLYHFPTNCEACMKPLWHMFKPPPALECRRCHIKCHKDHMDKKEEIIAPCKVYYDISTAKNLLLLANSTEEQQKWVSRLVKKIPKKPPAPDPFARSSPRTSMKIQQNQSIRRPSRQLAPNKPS
Method: as §1, §2
as §3, with “ROCK-II (h)” for “CK2(h)”, “50” for “20”, “Tris” for “Hepes”, “7.5,” for “7.6, 0.15 M NaCl,”, “EGTA, 30” for “EDTA, 5 mM DTT, 0.1% Triton X-100, 165”, “NO:8),” for “NO:6),”

CK2(h), sequence (P68400 whole entry): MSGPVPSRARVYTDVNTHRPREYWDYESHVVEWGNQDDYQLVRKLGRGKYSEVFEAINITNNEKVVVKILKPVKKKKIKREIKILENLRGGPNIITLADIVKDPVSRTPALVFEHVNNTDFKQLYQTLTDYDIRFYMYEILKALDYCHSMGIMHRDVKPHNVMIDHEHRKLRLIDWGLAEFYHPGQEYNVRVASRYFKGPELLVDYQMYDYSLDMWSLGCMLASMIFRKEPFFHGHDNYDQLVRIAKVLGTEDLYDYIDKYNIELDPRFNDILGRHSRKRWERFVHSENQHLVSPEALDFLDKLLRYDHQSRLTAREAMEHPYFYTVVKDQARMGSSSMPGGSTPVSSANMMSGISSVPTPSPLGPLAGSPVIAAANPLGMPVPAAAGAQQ
CK2(h), sequence (P67870 whole entry partner): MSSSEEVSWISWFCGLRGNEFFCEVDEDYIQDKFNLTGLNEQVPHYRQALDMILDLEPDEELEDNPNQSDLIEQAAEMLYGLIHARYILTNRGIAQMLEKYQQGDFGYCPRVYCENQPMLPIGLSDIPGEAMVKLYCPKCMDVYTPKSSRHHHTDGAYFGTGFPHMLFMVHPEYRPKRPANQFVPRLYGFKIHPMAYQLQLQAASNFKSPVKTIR

| Compound | Inhibitory activity (% of control), CK2(h) [1] | Inhibitory activity (% of control), ZAP-70(h) [2] | Inhibitory activity (% of control), FGFR3(h) [3] | Inhibitory activity (% of control), Fyn(h) [4] | Inhibitory activity (% of control), ROCK-II(h) [5] |
| --- | --- | --- | --- | --- | --- |
| COc1ccc2cc(-c3n[nH]c4ccc(-c5n[nH]c(CN6CCOCC6)n5)cc34)ccc2c1 [CC001, 3-(6-Methoxynaphthalen-2-yl)-5-(5-Morpholin-4-Ylmethyl-1H-[1,2,4]Triazol-3-yl)-1H-Indazole] | 45 % of control | 105 % of control | 33 % of control | 14 % of control | 4 % of control |
| CC(C)Cc1nc(-c2ccc3[nH]nc(-c4ccc5cc(OCCN6CCCC6)ccc5c4)c3c2)n[nH]1 [CC002, 5-(5-Isobutyl-1H-[1,2,4]Triazol-3-yl)-3-[6-(2-Pyrrolidin-1-yl-Ethoxy)-Naphthalen-2-yl]-1H-Indazole] | 41 % of control | 40 % of control | 5 % of control | 4 % of control | 2 % of control |
| CC(C)(C)Cc1nc(-c2ccc3[nH]nc(-c4ccc5cc(OCc6ccccn6)ccc5c4)c3c2)n[nH]1 [CC004, 5-[5-(2,2-Dimethyl-propyl)-1H-[1,2,4]triazol-3-yl]-3-[6-(pyridine-2-ylmethoxy)-naphthalen-2-yl]-1H-indazole] | 98 % of control | 68 % of control | 77 % of control | 67 % of control | 5 % of control |
| CCN1CCC[C@H]1COc1ccc2cc(-c3n[nH]c4ccc(-c5nc(CC(C)(C)C)n[nH]5)cc34)ccc2c1 [CC005, 2-[((2s)-1-ethylpyrrolidin-2-yl)methoxy]-6-{5-[3-(2,2-Dimethylpropyl)(1H-1,2,4,-triazol-5-yl)](1H-indazol-3-yl)}naphthalene] | 74 % of control | 26 % of control | 5 % of control | 4 % of control | 2 % of control |
| Fc1ccc(-c2n[nH]c3ccc(-c4n[nH]c(C5CCCC5)n4)cc23)cc1 [CC006, 5-(5-Cyclopentyl-1H-[1,2,4]triazol-3-yl)-3-(4-fluoro-phenyl)-1H-indazole, reference compound] | 50 % of control | 77 % of control | 33 % of control | 65 % of control | 13 % of control |
| O=C(NC1CCCC1)c1cccc(-c2n[nH]c3ccc(-c4nc[nH]n4)cc23)c1 [CC007, 3-(5-(1H-1,2,4-triazol-3-yl)(1H-indazol-3-yl))phenyl-N-cyclopentylcarboxamide, reference compound] | 27 % of control | 87 % of control | 54 % of control | 66 % of control | 69 % of control |
